The values below come from patent US20090311217A1, “3-SUBSTITUTED-1H-INDOLE COMPOUNDS, THEIR USE AS MTOR KINASE AND PI3 KINASE INHIBITORS, AND THEIR SYNTHESES” (priority 2008, published 2009).

Type in all cases: biochemical
For assay [1], the target named is PI3K-alpha (Homo sapiens, UniProt P42336). Kind of assay: PI3K-alpha fluorescence polarization assay. Conditions: read-out: PI3Kα Avg. IC50. A general note: Polarisation of emitted light reports the rotation of a fluorescent probe.
In assay [2] the target is PI3K-gamma (Homo sapiens, UniProt P48736). The assay can be described thus: PI3K-gamma fluorescence polarization assay. Conditions: PI3Kγ Avg. IC50. The procedure, abridged: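 Reactions used 5 ng enzyme with 2.5 μM diC8-PI(4,5)P2 and 25 μM ATP in 5 mM HEPES pH 7, 2.5 mM MgCl2, run 1 h at 25° C. After an EDTA quench (10 mM), 100 nM GST-GRP1 PH domain and 5 nM BODIPY-TMR-IP4 were added and fluorescence polarization was read.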
PI3K-gamma, sequence (P48736 whole entry, species assumed, the tested form may be a part): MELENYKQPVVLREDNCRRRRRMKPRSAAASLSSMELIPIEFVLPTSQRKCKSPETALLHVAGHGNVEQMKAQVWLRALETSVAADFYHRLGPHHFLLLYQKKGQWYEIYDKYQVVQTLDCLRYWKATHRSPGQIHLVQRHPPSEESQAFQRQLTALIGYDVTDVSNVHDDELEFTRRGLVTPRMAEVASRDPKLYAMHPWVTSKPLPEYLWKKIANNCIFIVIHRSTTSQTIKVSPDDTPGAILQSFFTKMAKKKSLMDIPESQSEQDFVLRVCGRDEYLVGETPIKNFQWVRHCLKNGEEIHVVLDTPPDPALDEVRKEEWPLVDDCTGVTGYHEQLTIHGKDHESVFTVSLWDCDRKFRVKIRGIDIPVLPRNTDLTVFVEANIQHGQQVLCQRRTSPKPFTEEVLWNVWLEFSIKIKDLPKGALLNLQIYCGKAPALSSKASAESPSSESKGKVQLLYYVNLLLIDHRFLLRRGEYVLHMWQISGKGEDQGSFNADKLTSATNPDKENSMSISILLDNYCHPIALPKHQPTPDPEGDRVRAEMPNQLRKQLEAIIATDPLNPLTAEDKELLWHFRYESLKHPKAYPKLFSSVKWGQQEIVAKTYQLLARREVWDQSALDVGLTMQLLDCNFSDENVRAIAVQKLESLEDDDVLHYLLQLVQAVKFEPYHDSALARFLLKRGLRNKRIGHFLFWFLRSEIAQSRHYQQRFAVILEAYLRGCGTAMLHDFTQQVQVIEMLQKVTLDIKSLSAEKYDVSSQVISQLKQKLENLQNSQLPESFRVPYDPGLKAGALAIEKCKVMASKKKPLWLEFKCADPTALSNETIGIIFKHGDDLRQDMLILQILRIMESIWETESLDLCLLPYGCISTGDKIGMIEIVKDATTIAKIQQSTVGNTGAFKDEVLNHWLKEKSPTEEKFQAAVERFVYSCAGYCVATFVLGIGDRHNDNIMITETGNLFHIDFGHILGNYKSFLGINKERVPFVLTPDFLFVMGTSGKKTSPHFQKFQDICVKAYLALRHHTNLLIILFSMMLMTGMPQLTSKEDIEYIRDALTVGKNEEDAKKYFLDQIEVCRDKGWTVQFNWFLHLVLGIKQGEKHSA

For assay [3], the target named is T1, human TOR (Homo sapiens, UniProt P42345).
T1 construct: FLAG
Kind of assay: mTOR enzyme assay (DELFIA, His6-S6K substrate). Conditions: read-out: mTOR Kinase Avg. IC50.

PI3K-alpha, sequence (P42336 whole entry, species assumed, the tested form may be a part): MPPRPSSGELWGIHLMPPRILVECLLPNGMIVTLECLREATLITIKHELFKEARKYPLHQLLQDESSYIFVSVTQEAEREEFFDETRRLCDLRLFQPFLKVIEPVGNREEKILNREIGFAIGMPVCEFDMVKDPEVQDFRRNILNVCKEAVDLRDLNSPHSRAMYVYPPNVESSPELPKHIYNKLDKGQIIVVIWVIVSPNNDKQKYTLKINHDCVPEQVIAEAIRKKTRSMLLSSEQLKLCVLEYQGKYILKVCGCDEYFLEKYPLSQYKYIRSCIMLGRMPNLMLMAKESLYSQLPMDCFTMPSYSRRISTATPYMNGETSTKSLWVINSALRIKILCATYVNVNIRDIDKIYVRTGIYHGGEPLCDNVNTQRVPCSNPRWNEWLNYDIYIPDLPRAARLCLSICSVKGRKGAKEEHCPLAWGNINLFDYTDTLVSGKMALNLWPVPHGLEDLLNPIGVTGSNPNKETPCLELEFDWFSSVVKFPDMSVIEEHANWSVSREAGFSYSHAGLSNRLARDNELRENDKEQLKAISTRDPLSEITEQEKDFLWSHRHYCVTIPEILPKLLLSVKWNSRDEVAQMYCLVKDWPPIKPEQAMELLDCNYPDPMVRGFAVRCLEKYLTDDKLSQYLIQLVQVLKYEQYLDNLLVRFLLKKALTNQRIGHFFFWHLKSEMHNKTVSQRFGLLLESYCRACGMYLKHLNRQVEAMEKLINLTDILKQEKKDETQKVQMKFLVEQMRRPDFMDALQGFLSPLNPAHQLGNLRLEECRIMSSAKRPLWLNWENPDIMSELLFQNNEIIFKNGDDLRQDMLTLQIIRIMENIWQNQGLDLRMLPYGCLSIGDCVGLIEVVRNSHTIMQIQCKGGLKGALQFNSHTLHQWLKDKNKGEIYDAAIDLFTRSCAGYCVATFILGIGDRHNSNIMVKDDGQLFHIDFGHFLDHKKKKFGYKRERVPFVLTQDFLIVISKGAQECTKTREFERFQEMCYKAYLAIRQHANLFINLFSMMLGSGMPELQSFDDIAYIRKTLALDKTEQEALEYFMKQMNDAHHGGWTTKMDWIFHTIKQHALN
PI3K-alpha, sequence (P27986 whole entry partner, species assumed, the tested form may be a part): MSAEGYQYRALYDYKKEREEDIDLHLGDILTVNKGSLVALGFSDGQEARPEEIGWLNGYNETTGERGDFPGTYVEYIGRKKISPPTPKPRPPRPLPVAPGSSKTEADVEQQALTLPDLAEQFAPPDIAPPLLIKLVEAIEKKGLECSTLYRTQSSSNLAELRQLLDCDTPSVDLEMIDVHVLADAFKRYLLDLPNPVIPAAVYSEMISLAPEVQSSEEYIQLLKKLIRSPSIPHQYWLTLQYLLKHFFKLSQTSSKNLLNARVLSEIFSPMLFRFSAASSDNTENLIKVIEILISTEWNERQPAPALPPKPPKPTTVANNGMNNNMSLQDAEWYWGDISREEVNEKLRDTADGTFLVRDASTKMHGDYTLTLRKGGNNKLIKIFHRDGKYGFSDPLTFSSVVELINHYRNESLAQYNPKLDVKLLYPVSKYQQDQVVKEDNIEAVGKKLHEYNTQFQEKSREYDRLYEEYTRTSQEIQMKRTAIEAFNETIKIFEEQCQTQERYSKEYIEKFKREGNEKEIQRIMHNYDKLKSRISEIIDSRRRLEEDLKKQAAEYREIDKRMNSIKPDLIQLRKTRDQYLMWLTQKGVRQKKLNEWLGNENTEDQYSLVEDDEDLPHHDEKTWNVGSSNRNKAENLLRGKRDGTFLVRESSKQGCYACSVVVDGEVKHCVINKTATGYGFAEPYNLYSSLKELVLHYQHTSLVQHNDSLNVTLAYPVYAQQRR

For orientation: IC50 means the concentration that gives 50% inhibition. Regarding `CCn1c(C)c(/C=C2\Oc3ccc(NC(=O)Nc4ccc(C(=O)C5CCN(C)CC5)cc4)cc3C2=O)c2cc(OC)ccc21` [Compound 651, 1-{(2Z)-2-[(1-ethyl-5-methoxy-2-methyl-1H-indol-3-yl)methylene]-3-oxo-2,3-dihydro-1-benzofuran-5-yl}-3-{4-[(1-methylpiperidin-4-yl)carbonyl]phenyl}urea], the values for the IC50 in assay [1], in assay [2] and in assay [3] were 0.9 nM, 19.7 nM and 783 nM, respectively.
Turning to `CCn1c(C)c(/C=C2\Oc3ccc(NC(=O)Nc4ccc(N(C)CCN(C)C)cc4)cc3C2=O)c2cc(OC)ccc21` [Compound 652, 1-(4-{[2-(dimethylamino)ethyl](methyl)amino}phenyl)-3-{(2Z)-2-[(1-ethyl-5-methoxy-2-methyl-1H-indol-3-yl)methylene]-3-oxo-2,3-dihydro-1-benzofuran-5-yl}urea], the IC50 was determined as 3.5 nM in assay [1], 18 nM in assay [2] and 135 nM in assay [3].
Turning to `CCn1c(C)c(/C=C2\Oc3ccc(NC(=O)Nc4ccc(N(C)CCCN(C)C)cc4)cc3C2=O)c2cc(OC)ccc21` [Compound 653, 1-(4-{[3-(dimethylamino)propyl](methyl)amino}phenyl)-3-{(2Z)-2-[(1-ethyl-5-methoxy-2-methyl-1H-indol-3-yl)methylene]-3-oxo-2,3-dihydro-1-benzofuran-5-yl}urea], the IC50 in assay [1] stood at 4 nM; in assay [2], 21 nM; in assay [3], 125 nM.
On the same counts, the results for `CCn1c(C)c(/C=C2\Oc3ccc(NC(=O)Nc4ccc(OCCCN(C)C)cc4)cc3C2=O)c2cc(OC)ccc21` [Compound 654, 1-{4-[3-(dimethylamino)propoxy]phenyl}-3-{(2Z)-2-[(1-ethyl-5-methoxy-2-methyl-1H-indol-3-yl)methylene]-3-oxo-2,3-dihydro-1-benzofuran-5-yl}urea] are 1.5 nM, 7.5 nM and 88 nM.
On the same counts, the results for `CCn1cc(/C=C2\Oc3ccc(NC(=O)Nc4ccc(C(=O)N(C)CCN(C)C)cc4)cc3C2=O)c2cc(OC)ccc21` [Compound 655, N-[2-(dimethylamino)ethyl]-4-[({(2Z)-2-[(1-ethyl-5-methoxy-1H-indol-3-yl)methylene]-3-oxo-2,3-dihydro-1-benzofuran-5-yl}carbamoyl)amino]-N-methylbenzamide] are 0.6 nM, 7.5 nM and 175 nM.
Consider `CNC(=O)Nc1ccc2c(c1)C(=O)/C(=C/c1c(-c3c(C)nn(C)c3C)n(CCN3CCNCC3)c3ccc(OC)cc13)O2` [Compound 656, 1-[(2Z)-2-{[5-methoxy-1-(2-piperazin-1-ylethyl)-2-(1,3,5-trimethyl-1H-pyrazol-4-yl)-1H-indol-3-yl]methylene}-3-oxo-2,3-dihydro-1-benzofuran-5-yl]-3-methylurea], for which the figures for the IC50 in assay [1], in assay [2] and in assay [3] were 0.95 nM, 52 nM and 35 nM, respectively.
Take `CCn1c(C)c(/C=C2\Oc3ccc(NC(=O)Nc4ccc(C(=O)N(C)CCCN(C)C)cc4)cc3C2=O)c2cc(OC)ccc21` [Compound 657, N-[3-(dimethylamino)propyl]-4-[({(2Z)-2-[(1-ethyl-5-methoxy-2-methyl-1H-indol-3-yl)methylene]-3-oxo-2,3-dihydro-1-benzofuran-5-yl}carbamoyl)amino]-N-methylbenzamide]: the IC50 in assay [1] came out at 0.4 nM; in assay [2], 3.5 nM; in assay [3] it was 84 nM.
The like results for `COc1ccc2c(c1)c(/C=C1\Oc3ccc(NC(=O)Nc4ccc(C(=O)N5CCN(C)CC5)cc4)cc3C1=O)c(C)n2C` [Compound 658, 1-{(2Z)-2-[(5-methoxy-1,2-dimethyl-1H-indol-3-yl)methylidene]-3-oxo-2,3-dihydro-1-benzofuran-5-yl}-3-{4-[(4-methylpiperazin-1-yl)carbonyl]phenyl}urea] were, in that order, 0.3 nM, 2.15 nM and 2450 nM.
Take `CCn1c(C)c(/C=C2\Oc3ccc(NC(=O)Nc4ccc(C(=O)NCCNC)cc4)cc3C2=O)c2cc(OC)ccc21` [Compound 659, 4-[({(2Z)-2-[(1-ethyl-5-methoxy-2-methyl-1H-indol-3-yl)methylene]-3-oxo-2,3-dihydro-1-benzofuran-5-yl}carbamoyl)amino]-N-[2-(methylamino)ethyl]benzamide]: the IC50 is 0.3 nM in assay [1], 2.2 nM in assay [2] and 15 nM in assay [3].
Turning to `CNCCNC(=O)c1ccc(NC(=O)Nc2ccc3c(c2)C(=O)/C(=C/c2c(C4CCCCC4)[nH]c4ccc(OC)cc24)O3)cc1` [Compound 660, 4-[({(2Z)-2-[(2-cyclohexyl-5-methoxy-1H-indol-3-yl)methylene]-3-oxo-2,3-dihydro-1-benzofuran-5-yl}carbamoyl)amino]-N-[2-(methylamino)ethyl]benzamide], the IC50 in assay [1] was found to be 0.3 nM; in assay [2] it was 2.95 nM; in assay [3], 4 nM.
On the same counts, the results for `CNCCNC(=O)c1ccc(NC(=O)Nc2ccc3c(c2)C(=O)/C(=C/c2c(C)n(C)c4ccc(OC)cc24)O3)cc1` [Compound 661, 4-[({(2Z)-2-[(5-methoxy-1,2-dimethyl-1H-indol-3-yl)methylene]-3-oxo-2,3-dihydro-1-benzofuran-5-yl}carbamoyl)amino]-N-[2-(methylamino)ethyl]benzamide] are 0.3 nM, 2 nM and 6 nM.
On the same counts, the results for `CNC(=O)Nc1cc(C)c2c(c1)C(=O)/C(=C/c1c(C)n(CCN3CCN(C)CC3)c3ccc(OC)cc13)O2` [Compound 662, 1-[(2Z)-2-({5-methoxy-2-methyl-1-[2-(4-methylpiperazin-1-yl)ethyl]-1H-indol-3-yl}methylidene)-7-methyl-3-oxo-2,3-dihydro-1-benzofuran-5-yl]-3-methylurea] are 81.5 nM, 3070 nM and 1480 nM.
Regarding `CCn1c(C)c(/C=C2\Oc3ccc(NC(=O)Nc4ccc(CCCCN(C)C)cc4)cc3C2=O)c2cc(OC)ccc21` [Compound 663, 1-{4-[4-(dimethylamino)butyl]phenyl}-3-{(2Z)-2-[(1-ethyl-5-methoxy-2-methyl-1H-indol-3-yl)methylidene]-3-oxo-2,3-dihydro-1-benzofuran-5-yl}urea], the IC50 in assay [1] amounted to 5.73 nM; in assay [2], 42.3 nM; in assay [3] it was 710 nM.
Regarding `CNC(=O)Nc1ccc2c(c1)C(=O)/C(=C/c1c(-c3c(C)nn(C)c3C)n(CCNCCN(C)C)c3ccc(OC)cc13)O2` [Compound 664, 1-[(2Z)-2-{[1-(2-{[2-(dimethylamino)ethyl]amino}ethyl)-5-methoxy-2-(1,3,5-trimethyl-1H-pyrazol-4-yl)-1H-indol-3-yl]methylidene}-3-oxo-2,3-dihydro-1-benzofuran-5-yl]-3-methylurea], the IC50 was 2.05 nM in assay [1], 63 nM in assay [2] and 18 nM in assay [3].
Consider `CNC(=O)Nc1ccc2c(c1)C(=O)/C(=C/c1c(-c3c(C)nn(C)c3C)n(CCN(C)CCN(C)C)c3ccc(OC)cc13)O2` [Compound 665, 1-[(2Z)-2-{[1-(2-{[2-(dimethylamino)ethyl](methyl)amino}ethyl)-5-methoxy-2-(1,3,5-trimethyl-1H-pyrazol-4-yl)-1H-indol-3-yl]methylidene}-3-oxo-2,3-dihydro-1-benzofuran-5-yl]-3-methylurea], for which the results for the IC50 in assay [1], in assay [2] and in assay [3] were 5.5 nM, 127 nM and 39 nM, respectively.
The like results for `CCn1c(C)c(/C=C2\Oc3ccc(NC(=O)Nc4ccc(C(=O)NCCCN(C)C)cc4)cc3C2=O)c2cc(OC)ccc21` [Compound 666, N-[3-(dimethylamino)propyl]-4-[({(2Z)-2-[(1-ethyl-5-methoxy-2-methyl-1H-indol-3-yl)methylidene]-3-oxo-2,3-dihydro-1-benzofuran-5-yl}carbamoyl)amino]benzamide] were, in that order, 0.8 nM, 4.5 nM and 34 nM.
As to `CCn1c(C)c(/C=C2\Oc3ccc(NC(=O)Nc4ccc(OCCN(C)C)cc4)cc3C2=O)c2cc(OC)ccc21` [Compound 667, 1-{4-[2-(dimethylamino)ethoxy]phenyl}-3-{(2Z)-2-[(1-ethyl-5-methoxy-2-methyl-1H-indol-3-yl)methylidene]-3-oxo-2,3-dihydro-1-benzofuran-5-yl}urea], the IC50 in assay [1] was found to be 1.87 nM; in assay [2], 11.3 nM; in assay [3] it was 153 nM.
Turning to `CCn1c(C)c(/C=C2\Oc3ccc(NC(=O)Nc4ccc(OCCCCN(C)C)cc4)cc3C2=O)c2cc(OC)ccc21` [Compound 668, 1-{4-[4-(dimethylamino)butoxy]phenyl}-3-{(2Z)-2-[(1-ethyl-5-methoxy-2-methyl-1H-indol-3-yl)methylidene]-3-oxo-2,3-dihydro-1-benzofuran-5-yl}urea], the IC50 amounted to 2.87 nM in assay [1], 12.3 nM in assay [2] and 295 nM in assay [3].
The like results for `CNCCNC(=O)c1ccc(NC(=O)Nc2ccc3c(c2)C(=O)/C(=C/c2c(C)n(CCN4CCN(C)CC4)c4ccc(OC)cc24)O3)cc1` [Compound 669, 4-({[(2Z)-2-({5-methoxy-2-methyl-1-[2-(4-methylpiperazin-1-yl)ethyl]-1H-indol-3-yl}methylidene)-3-oxo-2,3-dihydro-1-benzofuran-5-yl]carbamoyl}amino)-N-[2-(methylamino)ethyl]benzamide] were, in that order, 0.6 nM, 29 nM and 4 nM.
Turning to `CCn1c(C)c(/C=C2\Oc3ccc(NC(=O)Nc4ccc(CCN(C)C)cc4)cc3C2=O)c2cc(OC)ccc21` [Compound 670, 1-{4-[2-(dimethylamino)ethyl]phenyl}-3-{(2Z)-2-[(1-ethyl-5-methoxy-2-methyl-1H-indol-3-yl)methylidene]-3-oxo-2,3-dihydro-1-benzofuran-5-yl}urea], the IC50 in assay [1] was 3.5 nM; in assay [2], 20.3 nM; in assay [3] it was 133 nM.
